Experimental data from patent US20230365541A1, “INHIBITOR OF ENHANCER OF ZESTE HOMOLOGUE 2, AND USE THEREOF” (HAISCO PHARMACEUTICALS PTE. LTD., priority 2020, published 2023).

Biological target: EZH2 (Homo sapiens (Human), UniProt Q15910)
Assay: Test method for EZH2 enzyme activity
Type: biochemical
Settings: H3K27(21-44) and [3H]-SAM
Procedure: The compounds were dissolved in DMSO, formulated into 10 mM solutions and serially diluted with DMSO to obtain 100-fold the final concentration. 200 nL of the solutions of the compounds was transferred to a 384-well plate (Perkin Elmer, Cat. No. 6007299) by using Echo550. EZH2 (BPS, Cat. No. 51004) was diluted with 1×assay buffer (50 mM Tris-HCl 9.0, 0.01% Tween-20, 1 mM DTT) to 2-fold the final concentration (EZH2: 3 nM). A mixed solution of H3K27(21-44) and [3H]-SAM (PerkinElmer, Lot. No. 2146246) (H3K27(21-44): 200 nM, [3H]-SAM: 100 nM) was formulated. The EZH2 diluted solution was taken and added to the 384-well plate at 10 μL/well (10 μL of 1×assay buffer was added in the control group). The plate was sealed and then incubated at room temperature for 15 minutes. 10 μL of the mixed solution of H3K27 (21-44) and [3H]-SAM was added to each well. The plate was sealed and then incubated at room temperature for 60 minutes. 50 μM of SAM (Sigma, Cat. No. A7007) was formulated at low temperature and added to the 384-well plate at 10 μL/well. The sample was taken at 25 μL/well, transferred to a flashplate and incubated at room temperature for at least 1 hour. The flashplate was washed 3 times with a plate washing liquid (dH2O+0.1% Tween-20) and read by using Microbeta. The inhibition rate was calculated in Excel according to: inhibition rate (%)=(maximum valuepositive control−detection signal value)/(maximum valuepositive control−minimum valuenegative control)*100, and IC50 values were fitted by using XL-Fit.

Chain of EZH2 (Q15910 other isoform, or with tags, fused parts or gaps isoform Q15910-2): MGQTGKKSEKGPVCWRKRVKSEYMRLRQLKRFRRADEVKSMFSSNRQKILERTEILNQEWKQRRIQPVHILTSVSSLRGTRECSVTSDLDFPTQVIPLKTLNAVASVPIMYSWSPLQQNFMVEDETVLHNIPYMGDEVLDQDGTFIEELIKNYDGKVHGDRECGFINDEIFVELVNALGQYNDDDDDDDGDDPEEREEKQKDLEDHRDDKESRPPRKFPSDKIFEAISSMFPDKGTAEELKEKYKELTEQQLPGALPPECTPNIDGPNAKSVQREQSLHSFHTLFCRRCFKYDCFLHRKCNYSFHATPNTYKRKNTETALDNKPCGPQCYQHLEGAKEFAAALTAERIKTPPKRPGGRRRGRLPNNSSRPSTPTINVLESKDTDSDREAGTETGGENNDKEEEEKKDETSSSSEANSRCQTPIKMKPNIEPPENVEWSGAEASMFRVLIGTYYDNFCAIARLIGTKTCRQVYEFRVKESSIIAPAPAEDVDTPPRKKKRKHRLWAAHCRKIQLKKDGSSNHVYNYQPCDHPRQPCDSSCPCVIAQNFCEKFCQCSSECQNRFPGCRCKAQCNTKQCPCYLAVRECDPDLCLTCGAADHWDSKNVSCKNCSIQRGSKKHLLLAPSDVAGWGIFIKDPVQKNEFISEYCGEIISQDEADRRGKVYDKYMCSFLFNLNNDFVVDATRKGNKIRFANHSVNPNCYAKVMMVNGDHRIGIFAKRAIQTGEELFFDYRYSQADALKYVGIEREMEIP
Chain of EZH2 (O75530 2-441 partner): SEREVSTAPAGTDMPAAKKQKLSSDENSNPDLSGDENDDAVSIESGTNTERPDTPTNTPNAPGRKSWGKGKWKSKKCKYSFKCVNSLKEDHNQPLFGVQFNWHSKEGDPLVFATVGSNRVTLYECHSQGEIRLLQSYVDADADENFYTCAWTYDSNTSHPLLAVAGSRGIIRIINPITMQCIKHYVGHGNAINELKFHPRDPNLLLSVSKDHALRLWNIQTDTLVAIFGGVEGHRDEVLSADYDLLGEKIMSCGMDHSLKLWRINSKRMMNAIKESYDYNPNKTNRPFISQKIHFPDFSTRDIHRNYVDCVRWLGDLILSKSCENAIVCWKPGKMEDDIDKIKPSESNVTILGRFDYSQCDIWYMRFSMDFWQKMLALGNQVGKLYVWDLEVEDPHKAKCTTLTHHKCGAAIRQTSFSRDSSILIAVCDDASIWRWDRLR
Chain of EZH2 (Q15022 2-739 partner): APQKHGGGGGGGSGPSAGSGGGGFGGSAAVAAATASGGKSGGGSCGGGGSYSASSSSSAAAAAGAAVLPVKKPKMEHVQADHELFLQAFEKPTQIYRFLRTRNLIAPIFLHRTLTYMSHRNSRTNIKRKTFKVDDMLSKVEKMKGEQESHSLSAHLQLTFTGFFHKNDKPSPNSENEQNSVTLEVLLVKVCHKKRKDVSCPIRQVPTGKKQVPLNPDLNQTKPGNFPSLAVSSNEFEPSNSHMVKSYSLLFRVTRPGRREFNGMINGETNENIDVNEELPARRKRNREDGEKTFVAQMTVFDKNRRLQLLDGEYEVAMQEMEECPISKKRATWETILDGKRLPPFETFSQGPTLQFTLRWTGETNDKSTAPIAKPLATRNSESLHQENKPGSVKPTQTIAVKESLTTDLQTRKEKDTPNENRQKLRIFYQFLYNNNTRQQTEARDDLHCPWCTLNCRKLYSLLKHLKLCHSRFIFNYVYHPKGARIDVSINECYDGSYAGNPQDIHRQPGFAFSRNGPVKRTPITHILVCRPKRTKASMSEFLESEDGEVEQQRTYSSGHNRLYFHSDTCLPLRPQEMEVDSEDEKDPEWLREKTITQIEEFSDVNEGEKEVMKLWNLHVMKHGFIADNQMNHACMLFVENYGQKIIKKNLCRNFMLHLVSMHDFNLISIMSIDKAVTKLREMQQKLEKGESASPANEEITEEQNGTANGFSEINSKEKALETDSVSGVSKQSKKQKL
Chain of EZH2 (Q09028 2-425 partner): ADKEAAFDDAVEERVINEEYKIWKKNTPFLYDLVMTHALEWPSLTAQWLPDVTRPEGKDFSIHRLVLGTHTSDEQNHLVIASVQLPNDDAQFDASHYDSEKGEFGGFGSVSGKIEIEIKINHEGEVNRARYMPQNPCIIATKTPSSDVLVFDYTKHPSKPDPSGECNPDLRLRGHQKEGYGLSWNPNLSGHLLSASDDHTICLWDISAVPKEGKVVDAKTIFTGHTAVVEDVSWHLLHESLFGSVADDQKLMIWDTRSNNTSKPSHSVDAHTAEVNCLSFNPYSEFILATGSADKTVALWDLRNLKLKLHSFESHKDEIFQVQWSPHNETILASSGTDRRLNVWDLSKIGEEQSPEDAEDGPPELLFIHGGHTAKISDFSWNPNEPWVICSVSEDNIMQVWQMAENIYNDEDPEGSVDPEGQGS
Chain of EZH2 (Q6ZN18 whole entry partner): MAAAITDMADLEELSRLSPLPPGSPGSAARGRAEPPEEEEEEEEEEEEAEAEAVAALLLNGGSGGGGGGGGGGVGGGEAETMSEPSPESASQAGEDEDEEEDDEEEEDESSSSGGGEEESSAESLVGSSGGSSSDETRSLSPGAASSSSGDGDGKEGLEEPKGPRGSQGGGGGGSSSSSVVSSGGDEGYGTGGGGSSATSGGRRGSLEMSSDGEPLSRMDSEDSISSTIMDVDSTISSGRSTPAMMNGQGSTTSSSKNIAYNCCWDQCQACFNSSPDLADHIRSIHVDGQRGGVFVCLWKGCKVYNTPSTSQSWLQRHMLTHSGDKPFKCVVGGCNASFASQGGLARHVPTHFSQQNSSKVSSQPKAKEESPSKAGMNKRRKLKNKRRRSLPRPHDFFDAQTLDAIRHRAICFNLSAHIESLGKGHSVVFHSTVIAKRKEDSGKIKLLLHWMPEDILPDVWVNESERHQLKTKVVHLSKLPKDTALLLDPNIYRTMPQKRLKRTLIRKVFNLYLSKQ

| Compound | IC50 [nM] |
| --- | --- |
| [2H]C([2H])(NC(=O)c1cc(Cl)c2c(c1C)OC(C)(C1CCN(CC3CC(F)(F)C3)CC1)O2)c1c(SC)cc(C)[nH]c1=O (stereo not drawn) [Compound 28, 7-chloro-2-(1-((3,3-difluorocyclobutyl)methyl)piperidin-4-yl)-2,4-dimethyl-N-((6-methyl-4-(methylthio)-2-oxo-1,2-dihydropyridin-3-yl)methyl-d2)benzo[d][1,3]dioxole-5-carboxamide] | 0.49 |
| CSc1cc(C)[nH]c(=O)c1CNC(=O)c1cc(Cl)c2c(c1C)OC(C)([C@H]1CC[C@H](CNC3CC(F)(F)C3)CC1)O2 (single isomer, unassigned) [Compound 40, isomer 1, 7-chloro-2-(4-(((3,3-difluorocyclobutyl)amino)methyl)cyclohexyl)-2,4-dimethyl-N-((6-methyl-4-(methylthio)-2-oxo-1,2-dihydropyridin-3-yl)methyl)benzo[d][1,3]dioxole-5-carboxamide] | 0.61 |
| CSc1cc(C)[nH]c(=O)c1CNC(=O)c1cc(Cl)c2c(c1C)OC(C)([C@H]1CC[C@@H](N3CC[Si](C)(C)CC3)CC1)O2 (single isomer, unassigned) [Compound 49, isomer 1, 7-chloro-2-(4-(4,4-dimethyl-1,4-azasilinan-1-yl)cyclohexyl)-2,4-dimethyl-N-((6-methyl-4-(methylthio)-2-oxo-1,2-dihydropyridin-3-yl)methyl)benzo[d][1,3]dioxole-5-carboxamide] | 0.51 |
| CSc1cc(C)[nH]c(=O)c1CNC(=O)c1cc(Cl)c2c(c1C)OC(C)(C1CCN(C(=O)C3CC(F)(F)C3)CC1)O2 (single isomer, unassigned; isomer 2) [Compound 11, isomer 2, 7-chloro-2-(1-(3,3-difluorocyclobutane-1-carbonyl)piperidin-4-yl)-2,4-dimethyl-N-((6-methyl-4-(methylthio)-2-oxo-1,2-dihydropyridin-3-yl)methyl)benzo[d][1,3]dioxole-5-carboxamide] | 0.88 |
| CSc1cc(C)[nH]c(=O)c1CNC(=O)c1cc(Cl)c2c(c1C)OC(C)([C@H]1CC[C@@H](N3CC(N4CCCC4)C3)CC1)O2 (single isomer, unassigned) [Compound 43, isomer 2, 7-chloro-2,4-dimethyl-N-((6-methyl-4-(methylthio)-2-oxo-1,2-dihydropyridin-3-yl)methyl)-2-(4-(3-(pyrrolidin-1-yl)azetidin-1-yl)cyclohexyl)benzo[d][1,3]dioxole-5-carboxamide] | 0.42 |
| CSc1cc(C)[nH]c(=O)c1CNC(=O)c1cc(Cl)c2c(c1C)OC(C)([C@H]1CC[C@H](CNC3CC(F)(F)C3)CC1)O2 (single isomer, unassigned) [Compound 40, isomer 2, 7-chloro-2-(4-(((3,3-difluorocyclobutyl)amino)methyl)cyclohexyl)-2,4-dimethyl-N-((6-methyl-4-(methylthio)-2-oxo-1,2-dihydropyridin-3-yl)methyl)benzo[d][1,3]dioxole-5-carboxamide] | 0.51 |
| CSc1cc(C)[nH]c(=O)c1CNC(=O)c1cc(Cl)c2c(c1C)OC(C)(C1CCN(CC3CC(F)(F)C3)CC1)O2 (single isomer, unassigned) [Compound 10, isomer 1, 7-chloro-2-(1-((3,3-difluorocyclobutyl)methyl)piperidin-4-yl)-2,4-dimethyl-N-((6-methyl-4-(methylthio)-2-oxo-1,2-dihydropyridin-3-yl)methyl)benzo[d][1,3]dioxole-5-carboxamide] | 0.56 |
| CSc1cc(C)[nH]c(=O)c1CNC(=O)c1cc(Cl)c2c(c1C)OC(C)([C@H]1CC[C@@H](NC(=O)C3CC(F)(F)C3)CC1)O2 (single isomer, unassigned) [Compound 6, isomer 1, 7-chloro-2-(4-(3,3-difluorocyclobutane-1-carboxamido)cyclohexyl)-2,4-dimethyl-N-((6-methyl-4-(methylthio)-2-oxo-1,2-dihydropyridin-3-yl)methyl)benzo[d][1,3]dioxole-5-carboxamide] | 0.52 |
| CSc1cc(C)[nH]c(=O)c1CNC(=O)c1cc(Cl)c2c(c1C)OC(C)(C1CCN(C(=O)c3csc(C)n3)CC1)O2 (stereo not drawn) [Compound 21, 7-chloro-2,4-dimethyl-N-((6-methyl-4-(methylthio)-2-oxo-1,2-dihydropyridin-3-yl)methyl)-2-(1-(2-methylthiazole-4-carbonyl)piperidin-4-yl)benzo[d][1,3]dioxole-5-carboxamide] | 0.61 |

The remaining lines, values ahead:

| IC50 [nM] | Compound |
| --- | --- |
| 0.52 | CSc1cc(C)[nH]c(=O)c1CNC(=O)c1cc(Cl)c2c(c1C)OC(C)(C1CCN(C(=O)C3CC3)CC1)O2 (single isomer, unassigned) [Compound 7, isomer 1, 7-chloro-2-(1-(cyclopropanecarbonyl)piperidin-4-yl)-2,4-dimethyl-N-((6-methyl-4-(methylthio)-2-oxo-1,2-dihydropyridin-3-yl)methyl)benzo[d][1,3]dioxole-5-carboxamide] |
| 0.9 | CSc1cc(C)[nH]c(=O)c1CNC(=O)c1cc(Cl)c2c(c1C)OC(C)(C1CCC(c3cnn(C)c3)CC1)O2 (single isomer, unassigned) [Compound 8, isomer 2, 7-chloro-2,4-dimethyl-2-(4-(1-methyl-1H-pyrazol-4-yl)cyclohexyl)-N-((6-methyl-4-(methylthio)-2-oxo-1,2-dihydropyridin-3-yl)methyl)benzo[d][1,3]dioxole-5-carboxamide] |
| 0.48 | CO[C@H]1C[C@H](NC2CCC(C3(C)Oc4c(Cl)cc(C(=O)NCc5c(SC)cc(C)[nH]c5=O)c(C)c4O3)CC2)C1 (single isomer, unassigned) [Compound 9, isomer 2, 7-chloro-2-(4-((trans-3-methoxycyclobutyl)amino)cyclohexyl)-2,4-dimethyl-N-((6-methyl-4-(methylthio)-2-oxo-1,2-dihydropyridin-3-yl)methyl)benzo[d][1,3]dioxole-5-carboxamide] |
| 0.51 | CSc1cc(C)[nH]c(=O)c1CNC(=O)c1cc(Cl)c2c(c1C)OC(C)(C1CCC(c3cnn(C)c3)CC1)O2 (single isomer, unassigned) [Compound 8, isomer 1, 7-chloro-2,4-dimethyl-2-(4-(1-methyl-1H-pyrazol-4-yl)cyclohexyl)-N-((6-methyl-4-(methylthio)-2-oxo-1,2-dihydropyridin-3-yl)methyl)benzo[d][1,3]dioxole-5-carboxamide] |
| 0.23 | CSc1cc(C)[nH]c(=O)c1CNC(=O)c1cc(Cl)c2c(c1C)OC(C)([C@H]1CC[C@@H](N3CC4CN(C)CC4C3)CC1)O2 (single isomer, unassigned) [Compound 42, isomer 2, 7-chloro-2,4-dimethyl-N-((6-methyl-4-(methylthio)-2-oxo-1,2-dihydropyridin-3-yl)methyl)-2-(4-(5-methylhexahydropyrrolo[3,4-c]pyrrol-2(1H)-yl)cyclohexyl)benzo[d][1,3]dioxole-5-carboxamide] |
| 0.92 | CSc1cc(C)[nH]c(=O)c1CNC(=O)c1cc(Cl)c2c(c1C)OC(C)(C1CCC(N3CC(C#N)C3)CC1)O2 (single isomer, unassigned) [Compound 2, isomer 1, 7-chloro-2-(4-(3-cyanoazetidin-1-yl)cyclohexyl)-2,4-dimethyl-N-((6-methyl-4-(methylthio)-2-oxo-1,2-dihydropyridin-3-yl)methyl)benzo[d][1,3]dioxole-5-carboxamide] |
